Values of other authors as cited in patent publication US20090233885A1, “Compositions and Methods for Fat Reduction” (priority 2006, published 2009).

Tests used:
[1] = total administered amount per treatment
[2] = test system: adipose and muscle cells

Substance: phosphatidylcholine [PC]
- total administered amount above which cholinergic side effects (nausea, vomiting, diarrhea, flushing, sweating, bradycardia) occur [1]: exceeds 2000 mg per treatment

Substance: sodium deoxycholate [DC]
- cell specificity of effect [2]: nonspecific effects on both adipose and muscle cells
